Among the data in patent US10336707B2, “Heterocyclic derivatives modulating activity of certain protein kinases” (EUDENDRON S.R.L., priority 2014, dated 2019) are IC50 values, retold here.

The experiment addresses T1, DDR2 T654M (Homo sapiens, UniProt Q16832, T654M).
T1 construct: either as full-length or enzymatically active fragments; purchased ProQinase GmbH (Freiburg, Germany)
T1 sequence (Q16832 22-855 T654M): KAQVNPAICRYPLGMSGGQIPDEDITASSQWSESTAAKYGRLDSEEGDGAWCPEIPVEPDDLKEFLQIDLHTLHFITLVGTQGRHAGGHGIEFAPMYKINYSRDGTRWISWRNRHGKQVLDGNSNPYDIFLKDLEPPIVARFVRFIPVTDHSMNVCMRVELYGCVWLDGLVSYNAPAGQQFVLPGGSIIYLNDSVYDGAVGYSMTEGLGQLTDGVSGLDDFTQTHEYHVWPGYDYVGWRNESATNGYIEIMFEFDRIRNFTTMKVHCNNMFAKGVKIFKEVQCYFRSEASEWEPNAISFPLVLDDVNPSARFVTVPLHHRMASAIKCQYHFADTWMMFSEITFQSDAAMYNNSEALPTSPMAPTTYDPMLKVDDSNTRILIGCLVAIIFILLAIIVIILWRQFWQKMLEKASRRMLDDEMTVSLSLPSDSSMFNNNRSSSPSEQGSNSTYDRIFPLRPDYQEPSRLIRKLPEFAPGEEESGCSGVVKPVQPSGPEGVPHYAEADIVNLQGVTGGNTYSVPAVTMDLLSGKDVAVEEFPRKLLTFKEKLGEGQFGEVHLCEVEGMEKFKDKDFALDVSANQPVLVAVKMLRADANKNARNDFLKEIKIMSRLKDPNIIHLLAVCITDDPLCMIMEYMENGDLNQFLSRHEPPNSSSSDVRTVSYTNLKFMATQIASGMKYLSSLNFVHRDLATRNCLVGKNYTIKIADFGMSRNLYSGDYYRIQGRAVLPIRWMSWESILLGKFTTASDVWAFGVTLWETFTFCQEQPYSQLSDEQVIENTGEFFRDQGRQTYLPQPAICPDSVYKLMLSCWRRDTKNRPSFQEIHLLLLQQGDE
Put plainly: Radiometric protein kinase assay (33PanQuinase Activity Assay), DDR2 T654M. It is filed as biochemical. The conditions noted are these: ATP 0.3 μM. As to the method: A proprietary radiometric protein kinase assay (33PanQuinase® Activity Assay) developed by ProQuinase GmbH (Freiburg, Germany) was used for measuring the kinase activity of selected protein kinases. All assays were performed in FlashPlates™ wells 96 Perkin Elmer (Boston, Mass., USA) in a reaction volume of 50 μl. The reaction mixture was obtained in 4 steps in the following order: • 1. 10 μl of a solution of non-radioactive ATP in water; • 2. 25 μl of assay buffer/[γ-^33P]-ATP mixture • 3. 5 μl of test sample in 10% DMSO • 4. 10 μl of enzyme/substrate mixture
All protein kinases provided by ProQinase were expressed in Sf9 insect cells or in E. coli as recombinant GST-fusion proteins or His-tagged proteins, either as full-length or enzymatically active fragments. […] Kinases from external vendors (CAR=Carna Biosciences Inc.; INV=Life Technologies (Invitrogen Corporation); MIL=Merck-Millipore (Millipore Corporation), were expressed, purified and quality-controlled by virtue of the vendors readings.
A stock solution of compound of formula (I) was diluted to 5×10-04M/100% DMSO. […] Incorporation of 33Pi (counting of “cpm”) was determined with a microplate scintillation counter (Microbeta, Wallac). […]
Based on each 10 corresponding residual activities, IC50 values were calculated using Prism 5.04 for Windows (Graphpad, San Diego, Calif.). […]

Molecule `CN1CCN(c2ccc(C(=O)Nc3n[nH]c4cc(-c5ccc(O)cc5)c(Cc5cc(F)cc(F)c5)cc34)c(NC3CCOCC3)c2)CC1` [Example 3, N-[5-[(3,5-difluorophenyl)methyl]-6-(4-hydroxyphenyl)-1H-indazol-3-yl]-4-(4-methylpiperazin-1-yl)-2-(tetrahydropyran-4-ylamino)benzamide] registered a 50% inhibitory concentration (IC50) of 84 nM.
